Measured values reported in PMC12888856 (Antimicrobial Agents and Chemotherapy, 2025).
“And” between values parts separate entries of the source, which are not always exact repeats. Equal entries are not always repeated. Where two headings read alike, the source gives them in different places.

What was measured:
[1] = tested on: A/Puerto Rico/8/1934 (H1N1); assay: microbe, parasite or virus in culture; format: cell-based, Influenza A virus
A/Weiss/1943 (H1N1) = assay: microbe, parasite or virus in culture; format: cell-based, Influenza A virus
[2] = tested on: A/Hong Kong/8/1968 (H3N2); assay: microbe, parasite or virus in culture; format: cell-based, Influenza A virus
A/Malaya/302/1954 (H1N1) = assay: microbe, parasite or virus in culture; format: cell-based, Influenza A virus
[3] = tested on: A/Puerto Rico/8/1934 (H1N1); design: species or system BALB/c mice; conditions: mouse, in vivo
[4] = tested on: IAV H1N1 and H3N2 isolates; assay: microbe, parasite or virus in culture; format: cell-based, Influenza A virus
[5] = tested on: A/Puerto Rico/8/1934 (H1N1); design: species or system BALB/c mice; conditions: mouse, in vivo; remark: listed apart in the source
[6] = tested on: HPAI H5N1 and H7N9 isolates; assay: microbe, parasite or virus in culture; format: cell-based; conditions: Influenza A virus, MDCK, read-out: EC50 values, range over isolates
[7] = tested on: A/Hong Kong/4801/2014 (H3N2); assay: microbe, parasite or virus in culture; format: cell-based; conditions: Influenza A virus, H3N2, MDCK
[8] = tested on: A/California/07/2009 (H1N1); assay: microbe, parasite or virus in culture; format: cell-based; conditions: Influenza A virus, H1N1, MDCK
A/Perth/16/2009 (H3N2) = assay: microbe, parasite or virus in culture; format: cell-based; conditions: Influenza A virus, H3N2, MDCK
B/Lee/1940 = assay: microbe, parasite or virus in culture; format: cell-based; conditions: Influenza B virus, MDCK
[9] = cited from earlier work
[10] = tested on: A/Michigan/45/2015 (H1N1); assay: microbe, parasite or virus in culture; format: cell-based; conditions: Influenza A virus, H1N1, MDCK
[11] = tested on: A/cattle/Texas/56283/2024 (H5N1); assay: microbe, parasite or virus in culture; format: cell-based; conditions: Influenza A virus, H5N1, MDCK
in vitro [12] = conditions: dog
A549 cells = conditions: human
A/WSN/1933 (H1N1) = assay: microbe, parasite or virus in culture; format: cell-based; conditions: Influenza A virus, MDCK
in vitro [13] = conditions: human
HepG2 cells = conditions: human
[14] = tested on: A/Mexico/4108/2009 (H1N1); assay: microbe, parasite or virus in culture; format: cell-based; conditions: Influenza A virus, H1N1, MDCK
[15] = tested on: A/Wilson-Smith/1933 (H1N1); assay: microbe, parasite or virus in culture; format: cell-based; conditions: Influenza A virus, H1N1, MDCK
[16] = tested on: A/California/2/2014 (H3N2); assay: microbe, parasite or virus in culture; format: cell-based; conditions: Influenza A virus, H3N2, MDCK
[17] = tested on: A/Switzerland/971593/2013 (H3N2); assay: microbe, parasite or virus in culture; format: cell-based; conditions: Influenza A virus, H3N2, MDCK
[18] = mouse, in vivo; cited from earlier work
[19] = tested on: A/Puerto Rico/8/1934 (H1N1); conditions: mouse, in vivo; cited from earlier work
A/Anhui/1/2013 (H7N9) = assay: microbe, parasite or virus in culture; format: cell-based; conditions: Influenza A virus, H7N9, MDCK
[20] = tested on: A/Brisbane/05/2018 (H1N1); assay: microbe, parasite or virus in culture; format: cell-based; conditions: Influenza A virus, H1N1, MDCK
A/Kansas/14/2017 (H3N2) = assay: microbe, parasite or virus in culture; format: cell-based; conditions: Influenza A virus, H3N2, MDCK
[21] = tested on: A/New York/18/2009 (H1N1); assay: microbe, parasite or virus in culture; format: cell-based; conditions: Influenza A virus, H1N1, MDCK
B/Florida/78/2015 = assay: microbe, parasite or virus in culture; format: cell-based; conditions: Influenza B virus, MDCK
[22] = tested on: A/Vietnam/1203/2004 (H5N1); assay: microbe, parasite or virus in culture; format: cell-based; conditions: Influenza A virus, H5N1, MDCK
[23] = tested on: A/Hong Kong/213/2003 (H5N1); assay: microbe, parasite or virus in culture; format: cell-based; conditions: Influenza A virus, H5N1, MDCK
[24] = Balb/c, mouse, in vivo
A/Taiwan/1/2017 (H7N9) = assay: microbe, parasite or virus in culture; format: cell-based; conditions: Influenza A virus, H7N9, MDCK

O=C1c2c(O)c(=O)ccn2N([C@@H]2c3ccccc3SCc3c2ccc(F)c3F)[C@@H]2COCCN12 [Baloxavir, baloxavir, reference compound]
EC50 ([1]; Influenza A virus, H1N1, MDCK): 0.57 nM | EC50 (A/Weiss/1943 (H1N1); Influenza A virus, H1N1, MDCK): 0.4 nM | EC50 ([2]; read-out: EC50): 0.68 nM

CCOC(=O)C1=C[C@@H](OC(CC)CC)[C@H](NC(C)=O)[C@@H](N)C1 [Oseltamivir, oseltamivir, reference compound]
EC50 ([1]; Influenza A virus, H1N1, MDCK): 970 nM | Fold shift (A/Malaya/302/1954 (H1N1)): 1.19 | body weight loss leading to euthanasia [3]: > 25% | EC50 (A/Weiss/1943 (H1N1); Influenza A virus, H1N1, MDCK): 1050 nM | shift in EC50 values relative to reference strain [4]: < 2 fold | Fold shift [2]: 0.09 | EC50 ([2]; read-out: EC50): 90 nM | Lung viral load [5]: comparable to the vehicle control

COC[C@@]1(C)COC[C@@H](COc2ccc(-c3cc(C(N)=O)c(O)nc3C(F)(F)F)cc2)O1 [VNT-101]
EC50 [6]: 19 to 69 nM | EC50 [7]: 2.59 nM | EC90 [7]: 3.71 nM | EC50 [8]: 8.39 nM | EC90 [8]: 19.2 nM | EC50 (A/Perth/16/2009 (H3N2)): 4.05 nM | EC90 (A/Perth/16/2009 (H3N2)): 5.68 nM | EC50 [1]: 2.1 nM and 2 nM | EC50 ([1]; Influenza A virus, H1N1, MDCK): 2.08 nM | EC90 ([1]; Influenza A virus, H1N1, MDCK): 3.22 nM | EC50 ([1]; Influenza A virus, H1N1, MDCK, read-out: mean EC50): 5 nM | EC50 (B/Lee/1940): > 47500 nM | EC90 (B/Lee/1940): > 50000 nM | percent plasma protein binding [9]: 97.1% | EC50 [10]: 17.7 nM | EC90 [10]: 29.4 nM | EC50 [11]: 65 nM | CC50 (in vitro [12]): > 100000 nM | EC50 (A/Malaya/302/1954 (H1N1); Influenza A virus, H1N1, MDCK): > 50000 nM | EC90 (A/Malaya/302/1954 (H1N1); Influenza A virus, H1N1, MDCK): > 50000 nM | CC50 (A549 cells): > 100000 nM | EC50 (A/WSN/1933 (H1N1)): 115 nM | EC90 (A/WSN/1933 (H1N1)): 191 nM | CC50 (in vitro [13]; Proliferating condition CC50): 72800 nM | CC50 (in vitro [13]; Stationary condition CC50 (mean)): > 80400 nM | CC50 (in vitro [13]; Stationary condition CC50, individual runs): > 100000 nM | final mean body weight loss [3]: 21.1% | maximum mean body weight loss [3]: 24.4% | maximum mean body weight loss ([3]; 30 mg/kg): 13.6% and 25.1% | Survival ([3]; po, 100 mg/kg): 33% | EC50 (A/Weiss/1943 (H1N1)): 123 nM | EC50 (A/Weiss/1943 (H1N1); Influenza A virus, H1N1, MDCK): 123 nM | EC90 (A/Weiss/1943 (H1N1); Influenza A virus, H1N1, MDCK): 210 nM | CC50 (HepG2 cells): > 100000 nM | EC50 [14]: 14.4 nM | EC90 [14]: 112 nM | EC50 [15]: 26.3 nM | EC90 [15]: 50.6 nM | EC50 ([4]; Influenza A virus, MDCK, read-out: mean EC50 values, range over isolates): 2 to 18 nM | EC50 [16]: 2.2 nM | EC90 [16]: 3.41 nM | EC50 ([2]; Influenza A virus, H3N2, MDCK): > 50000 nM | EC90 ([2]; Influenza A virus, H3N2, MDCK): > 50000 nM | EC50 ([2]; read-out: EC50): > 50000 nM | EC50 [17]: 2.19 nM | EC90 [17]: 3.32 nM | Cmin [18]: 3.49 ± 1.35 µM | protection from lethality, prophylaxis [19]: protected mice from lethality | EC50 (A/Anhui/1/2013 (H7N9)): 24 nM | EC50 [20]: 6.55 nM | EC90 [20]: 11.2 nM | EC50 (A/Kansas/14/2017 (H3N2)): 3.14 nM | EC90 (A/Kansas/14/2017 (H3N2)): 18 nM | EC50 [21]: 1.85 nM | EC90 [21]: 5.12 nM | EC50 (B/Florida/78/2015): 43700 nM | EC90 (B/Florida/78/2015): > 50000 nM | EC50 [22]: 25 nM | EC50 [23]: 19 nM | fAUC [24]: 3.045 µM·h | fCmin [24]: 0.10 µM | EC50 (A/Taiwan/1/2017 (H7N9)): 69 nM
